Laboratory results published in publication PMC11111404, “Discovery of potent small-molecule inhibitors of lipoprotein(a) formation” (Nature, 2024).
Values joined by “and” are separate entries in the source; they are usually repeats but may differ in a detail not shown here. Equal entries are not always repeated. Where two headings read alike, the source gives them in different places.

Columns and labels:
[1] = Pharmacokinetics in monkey plasma after oral dosing; type: in vivo; conditions: cynomolgus; for Cmax / Tmax: day 14; for AUC(0-t): day 14, read-out: AUC(0-96 hr)
Lp(a) = Lp(a) levels in cynomolgus monkeys; type: in vivo, cynomolgus monkey (Macaca fascicularis); design: key to Mean_pCFB_vs_Veh / Mean_pCFB_vs_Veh (Lp(a)): % change from pre-dose, treated group compared with vehicle; key to Mean_pCFB / Mean_pCFB (Lp(a)): % change in Lp(a) from before dosing; Lp(a): unit not given here; conditions: for Lp(a): Fig 3b raw data; for Mean_pCFB / Mean_pCFB_vs_Veh: Lp(a), female cynomolgus monkeys; for maximum decrease of median Lp(a) levels / %Lp(a) max decrease (dose, mg/kg): cynomolgus monkeys; for maximum decrease of median Lp(a) levels: after 5 days; for %Lp(a) max decrease (dose, mg/kg): 14 days dosing
Description: Female or male Chinese Macaca fascicularis cynomolgus monkeys (as described in the figure legends) of unspecified ages with body weight ranging from 2.0 kg to 5.0 kg were housed in cages with a standard light cycle (12-h light, 12-h dark) at room temperature (20–26 °C); the relative humidity ranged from 30% to 70%. Monkeys were given fruits, vegetables or dietary enrichment as a form of environmental enrichment, and various cage enrichment devices. Purina Lab diet 5048C was provided BID and individual monkeys were identified by cage card. The monkeys were randomized to treatment groups by body weight and baseline plasma Lp(a) concentration, as determined by a commercially available Randox assay (Randox LP2757), using a BRAT for the study. In an example cynomolgus monkey study in which 39 monkeys were prescreened for baseline Lp(a) levels, the average Lp(a) level was 350 ± 57 µg ml^−1 (range 53–1,667 µg ml^−1). Monkeys were dosed orally with vehicle (purified water) or compounds QD or BID for 14 days, at dose levels and frequencies as previously described for each compound. Plasma samples were collected on days before dosing to establish baseline Lp(a) and after the morning dose during the study. Lp(a) levels were measured by an investigator who was blinded to group allocation using the Randox assay, and were quantified relative to the calibrator series (Randox LP3404). Data were analysed in GraphPad Prism v.9.5.1. The Lp(a) percentage change from before dosing in non-human primates was analysed by repeated measures ANOVA in SAS v.9.4 (SAS). At each time point, the Lp(a) percentage change for each treated group was compared with vehicle by the Bonferroni method.

plasmin activity = target: T1, plasmin activity (Rattus norvegicus, UniProt Q01177); experiment: Rat plasma plasmin (plasminogen) activity ex vivo after oral dosing; type: in vivo; conditions: for PLG activity (Vmax), Plasminogen (mean of replicates) / PLG activity (Vmax), Replicate 1 / PLG activity (Vmax), Replicate 2 / PLG activity % change from Vehicle: rat, individual animals; for PLG activity % change from Vehicle: Vehicle mean 267.0
T1 construct: Plasma samples were collected via the abdominal aorta; from tissue; host or cells: Citrated plasma of orally dosed male Sprague Dawley rats
Description: Male Sprague Dawley rats (Charles River, average body weight 310 g, aged eight to nine weeks old) were housed in cages with a standard light cycle (12-h light, 12-h dark), at room temperature (22 ± 4 °C), with a relative humidity of 30–70%. Rats were identified by numbers on the cage cards. After arrival, rats were fed on a normal diet (Harlan Teklad diet 2014) and randomized to treatment groups (n = 5 per group) by baseline plasma plasminogen concentration and activity using a BRAT. LSN3441732 and LY3473329 were administered QD orally at three dose levels (3.7, 12.3 and 37 mg kg^−1; 3.2, 10.5 and 31.6 mg kg^−1 per dose, respectively) or vehicle (10 ml kg^−1, 1% HEC, 0.25% Tween-80, Antifoam) for four days. Terminal blood was drawn under general anaesthesia 24 h after the day-4 oral dose. Plasma samples were collected via the abdominal aorta into a premeasured anticoagulant BD Vacutainer used for blood collection (2.7 ml, buffered sodium citrate). The liver was flash frozen in liquid nitrogen. To measure plasminogen activity, 100 µl plasma per well was added to a 96-well plate (Corning) and the following were added to the indicated concentrations: 7.5 mM CaCl2 and 117 mM NaCl. Wells were mixed and warmed to 37 °C. Urokinase (Millipore) was added at 125 U per well and the plate was incubated at 37 °C for 4 min. The plasminogen substrate Chromogenix S-2251 (DiaPharma) was added to a concentration of 3.3 mM. The mixture was added and the plate was sealed and placed in a prewarmed plate reader, shaken, and the absorbance read every 30 s for 2 h. The maximum slope for each curve was determined and the percentage inhibition was calculated relative to untreated controls. Plasminogen protein was measured using ELISA kits for rat (Abcam ab157740) according to the manufacturer’s instructions. Plasminogen activity (percentage) and mass (µg ml^−1) in rat were analysed by ANOVA in JMP 16.1.0. The percentage reduction of plasminogen activity and mass for each treated group was compared with vehicle by Dunnett’s method.

[2] = 2mpk BID, Day 1, individual cynos
[3] = 2mpk BID, Day 3, individual cynos
[4] = 2mpk BID, Day 5, individual cynos
[5] = 2mpk BID, Day 9, individual cynos
[6] = 2mpk BID, Day 14, individual cynos
[7] = 10mpk BID, Day 1, individual cynos
[8] = 10mpk BID, Day 3, individual cynos
[9] = 10mpk BID, Day 5, individual cynos
[10] = 10mpk BID, Day 9, individual cynos
[11] = 10mpk BID, Day 14, individual cynos

T1 sequence (Q01177 20-812 limits assumed): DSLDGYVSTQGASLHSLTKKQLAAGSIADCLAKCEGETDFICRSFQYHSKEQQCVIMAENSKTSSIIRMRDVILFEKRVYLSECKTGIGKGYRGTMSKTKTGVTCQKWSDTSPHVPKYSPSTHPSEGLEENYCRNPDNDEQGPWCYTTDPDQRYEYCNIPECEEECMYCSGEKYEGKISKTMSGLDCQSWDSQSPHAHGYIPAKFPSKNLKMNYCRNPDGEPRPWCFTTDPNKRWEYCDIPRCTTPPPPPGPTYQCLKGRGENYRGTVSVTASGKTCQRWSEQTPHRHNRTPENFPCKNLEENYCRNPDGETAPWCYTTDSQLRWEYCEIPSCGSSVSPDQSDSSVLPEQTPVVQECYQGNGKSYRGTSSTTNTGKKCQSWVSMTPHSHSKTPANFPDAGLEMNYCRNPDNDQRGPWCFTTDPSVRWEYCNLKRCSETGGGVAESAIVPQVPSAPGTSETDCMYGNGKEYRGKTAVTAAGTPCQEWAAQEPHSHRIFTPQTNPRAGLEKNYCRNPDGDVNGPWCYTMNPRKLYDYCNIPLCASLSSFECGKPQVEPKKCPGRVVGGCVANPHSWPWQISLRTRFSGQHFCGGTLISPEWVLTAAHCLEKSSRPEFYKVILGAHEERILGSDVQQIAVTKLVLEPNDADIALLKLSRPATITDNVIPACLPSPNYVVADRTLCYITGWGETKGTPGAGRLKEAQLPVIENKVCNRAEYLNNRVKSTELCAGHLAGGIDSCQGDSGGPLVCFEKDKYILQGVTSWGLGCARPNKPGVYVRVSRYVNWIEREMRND

## Cl.Cl.O=C(Nc1cccc(C[C@H](C(=O)O)[C@H]2CCNC2)c1)Nc1cccc(C[C@H](C(=O)O)[C@H]2CCNC2)c1 [LSN3441732]
[1]; oral 2 mg/kg
  Cmax: 754 ± 428 nM
  Tmax: 3.81 ± 2.14 h
  AUC(0-t): 5.63 µM·h
[1]; oral 10 mg/kg
  Cmax: 4380 nM
  Tmax: 2.06 ± 1.32 h
  AUC(0-t): 22.2 µM·h
Lp(a); [2]
  pCFB (pct chng from baseline, Lp(a)): -0.8715 pct and -9.178 pct and 9.115 pct and 2.958 pct and -14.9999 pct and -4.998 pct and -4.507 pct and 6.837 pct
  Lp(a): 66.699 and 27.339 and 53.349 and 76.924
Lp(a); [3]
  pCFB (pct chng from baseline, Lp(a)): -26.3908 pct and -7.214 pct and -20.0294 pct and -41.4028 pct and -34.8821 pct and 12.2337 pct and -15.3593 pct and -16.4032 pct
  Lp(a): 59.119 and 21.392 and 39.615 and 78.588
Lp(a); [4]
  pCFB (pct chng from baseline, Lp(a)): -60.4222 pct and -23.7562 pct and -53.193 pct and -73.9823 pct and -52.767 pct and 10.0362 pct and -38.056 pct and -25.4812 pct
  Lp(a): 43.266 and 19.069 and 21.3 and 64.577
Lp(a); [5]
  pCFB (pct chng from baseline, Lp(a)): -46.3414 pct and -22.6794 pct and -48.3056 pct and -58.1644 pct and -48.9556 pct and 33.2038 pct and -34.8562 pct and -42.8477 pct
  Lp(a): 45.501 and 14.625 and 28.878
Lp(a); [6]
  pCFB (pct chng from baseline, Lp(a)): -26.8256 pct and -20.2744 pct and -41.4618 pct and -48.6082 pct and -43.1214 pct and 61.8786 pct and -34.6787 pct and -24.6097 pct
  Lp(a): 24.162 and 45.625 and 19.292 and 39.381
Lp(a); 2mpk BID, Day -1 (pre-dose), individual cynos
  Lp(a): 76.499 and 27.63 and 59.314 and 80.73
Lp(a); 2mpk BID, Day -14 (pre-dose), individual cynos
  Lp(a): 63.195 and 23.549 and 48.322 and 88.666
Lp(a); [7]
  pCFB (pct chng from baseline, Lp(a)): 6.085 pct and 18.5121 pct and 11.2235 pct and -12.4022 pct and 3.527 pct and -18.0886 pct and 0.3688 pct and -16.5769 pct
  Lp(a): 42.107 and 61.295 and 35.316 and 53.315 and 65.761 and 52.068 and 17.81 and 84.78
Lp(a); [8]
  pCFB (pct chng from baseline, Lp(a)): -30.0594 pct and -45.1266 pct and -34.624 pct and -67.6349 pct and -34.8372 pct and -50.8715 pct and -17.9315 pct and -61.9012 pct
  Lp(a): 19.23 and 40.411 and 16.352 and 31.338 and 24.297 and 32.773 and 10.682 and 69.322
Lp(a); [9]
  pCFB (pct chng from baseline, Lp(a)): -74.5889 pct and -41.8647 pct and -61.4356 pct and -52.9091 pct and -78.302 pct and -39.7105 pct and -69.6086 pct and -32.2067 pct
  Lp(a): 12.826 and 33.59 and 11.492 and 22.573 and 16.289 and 30.322 and 6.608
Lp(a); [10]
  pCFB (pct chng from baseline, Lp(a)): -56.8372 pct and -40.6982 pct and -59.7007 pct and -36.5829 pct and -68.9989 pct and -34.2069 pct and -69.9581 pct and 8.689 pct
  Lp(a): 21.786 and 34.264 and 12.009 and 30.399 and 23.273 and 33.09 and 6.532
Lp(a); [11]
  pCFB (pct chng from baseline, Lp(a)): -44.94 pct and -47.7665 pct and -60.9759 pct and -27.3662 pct and -62.6383 pct and -7.387 pct and -32.53 pct and -7.053 pct
  Lp(a): 27.791 and 30.18 and 11.629 and 34.817 and 28.048 and 46.579 and 14.67
Lp(a); 10mpk BID, Day -1 (pre-dose), individual cynos
  Lp(a): 51.607 and 58.876 and 34.406 and 53.514 and 88.739 and 49.824 and 82.77 and 24.664
Lp(a); 10mpk BID, Day -14 (pre-dose), individual cynos
  Lp(a): 49.341 and 56.682 and 25.193 and 42.356 and 61.404 and 86.167 and 50.764 and 18.822
Lp(a); 2mpk BID, day 1
  Mean_pCFB: -1.96
  Mean_pCFB_vs_Veh: -1.99
Lp(a); 2mpk BID, day 3
  Mean_pCFB: -18.68
  Mean_pCFB_vs_Veh: -8.97
Lp(a); 2mpk BID, day 5
  Mean_pCFB: -39.7
  Mean_pCFB_vs_Veh: -22.16
Lp(a); 2mpk BID, day 9
  Mean_pCFB: -33.62
  Mean_pCFB_vs_Veh: -19.16
Lp(a); 2mpk BID, day 14
  Mean_pCFB: -22.21
  Mean_pCFB_vs_Veh: -17.15
Lp(a); 10mpk BID, day 1
  Mean_pCFB: -0.92
  Mean_pCFB_vs_Veh: -0.95
Lp(a); 10mpk BID, day 3
  Mean_pCFB: -42.87
  Mean_pCFB_vs_Veh: -33.16
Lp(a); 10mpk BID, day 5
  Mean_pCFB: -56.33
  Mean_pCFB_vs_Veh: -38.79
Lp(a); 10mpk BID, day 9
  Mean_pCFB: -44.79
  Mean_pCFB_vs_Veh: -30.33
Lp(a); 10mpk BID, day 14
  Mean_pCFB: -36.33
  Mean_pCFB_vs_Veh: -31.27
Lp(a); 2 mg kg^−1 oral BID
  maximum decrease of median Lp(a) levels: 45%
Lp(a); 2 mg/kg BID
  %Lp(a) max decrease (dose, mg/kg): 40%
Lp(a); 10 mg kg^−1 oral BID
  maximum decrease of median Lp(a) levels: 57%
Lp(a); 10 mg/kg BID
  %Lp(a) max decrease (dose, mg/kg): 56%
Plasmin activity; dose 3.7 mpk, 3.7 mg/kg
  PLG activity (Vmax), Plasminogen (mean of replicates): 240.6 and 263.3 and 236.5 and 207.9 and 235.8
  PLG activity (Vmax), Replicate 1: 239.342 and 259.606 and 234.747 and 204.985 and 233.598
  PLG activity (Vmax), Replicate 2: 241.939 and 266.922 and 238.196 and 210.884 and 238.070
  PLG activity % change from Vehicle: -9.88% and -1.40% and -11.44% and -22.12% and -11.68%
Plasmin activity; dose 12.3 mpk, 12.3 mg/kg
  PLG activity (Vmax), Plasminogen (mean of replicates): 282.2 and 249.5 and 239.5 and 205.0 and 186.8
  PLG activity (Vmax), Replicate 1: 284.452 and 249.068 and 238.009 and 201.341 and 183.623
  PLG activity (Vmax), Replicate 2: 279.877 and 249.884 and 240.921 and 208.639 and 189.912
  PLG activity % change from Vehicle: 5.68% and -6.57% and -10.32% and -23.23% and -30.05%
Plasmin activity; dose 37 mpk, 37 mg/kg
  PLG activity (Vmax), Plasminogen (mean of replicates): 195.8 and 173.1 and 184.9 and 150.3 and 200.6
  PLG activity (Vmax), Replicate 1: 217.532 and 172.649 and 184.379 and 149.241 and 196.980
  PLG activity (Vmax), Replicate 2: 174.037 and 173.594 and 185.398 and 151.449 and 204.259
  PLG activity % change from Vehicle: -26.67% and -35.16% and -30.76% and -43.69% and -24.86%
Plasmin activity; rats treated orally at pharmacological doses
  plasma plasmin activity measured ex vivo: decreased plasma plasmin activity
